pIC50, pKd: −log10 of the molar value.
Key:
[1] = test system: GM-CSFR/JAK2/STAT5 pathway in CSTF-1 cells; assay: CSTF-1 cell-based reporter assay (beta-lactamase, GM-CSF stimulated); design: species or system human; details: Homo sapiens; GM-CSF at 2 ng/mL, 4 hours; read-out: Cell Assay: CS TF-1 reporter assay IC50
Procedure: CSTF-1 Cell-Based Reporter Assay
CSTF-1 cells are derived from the human erythroleukemia cell line that is growth dependent on GM-CSF and has an intact GM-CSFR/JAK2/STAT5 pathway. The cell line contains stably integrated beta-lactamase reporter gene under the control of the […] (irf 1) response element recognized by the activated transcription factor STATS. csTF-1 cells (Invitrogen K1219) were washed with assay media (97% OPTIMEM/ 0.5% dialyzed FBS/0.1 mM NEAA/1 mM Na pyr/P/S) and seeded in the same media at 5×10^5 cell/mL in T150 flask. After 16 hour incubation, cells were seeded at 2×10^5 cell/well in 50 μl volume, into Costar, clear bottom, 96-well assay plates. Serial dilutions of compounds were added to the plates with final DMSO concentration at 0.5% and GM-CSF at 2 ng/mL and the plates were then incubated at […] and 5% CO2 for 4 hours. The plates were brought to room temperature before adding Substrate Mixture according to manufacturer's protocol (Invitrogen, Catalog #K1085). The assay plates containing the substrate mixture were incubated in the dark at room temperature for 2 hours. Blue and green fluorescence was measured with excitation at 409 nm and emission at 460 nm (for blue) and excitation at 409 nm and emission at 530 nm (for green) using Spectra Max Gemini EM.

[2] = test system: distinct kinases tested excluding mutant variants, typically 359 or 386 kinases; assay: Kinase selectivity score from competition binding panel; details: compound at 10 μM; fraction of kinases with inhibition of 90% or greater
Procedure: (§1) Competition binding assays used herein were developed, validated and performed as described in Fabian et al., Nature Biotechnology 2005, 23,329-336. Kinases were produced as fusions to T7 phage (See, Fabian et al. or WO04/015142) or alternatively, the kinases were expressed in HEK-293 cells and subsequently tagged with DNA for PCR detection (See, WO08/005310). For the binding assays, streptavidin-coated magnetic beads were treated with biotinylated affinity ligands for 30 min at rt to generate affinity resins. The liganded beads were blocked with excess biotin and washed with blocking buffer (SeaBlock (Pierce), 1% BSA, 0.05% Tween 20, 1 mM DTT) to remove unbound ligand and to reduce non-specific binding. Binding reactions were assembled by combining kinase, liganded affinity beads, and test compounds in 1× binding buffer (20% SeaBlock, 0.17×PBS, 0.05% Tween 20, 6 mM DTT). Test compounds were prepared as 100× stocks in DMSO and rapidly diluted into the aqueous environment. DMSO was added to control assays lacking a test compound. Primary screen interactions were performed in polypropylene 384-well plates in a final volume of 34 μL, while Kd determinations were performed in polystyrene 96-well plates in a final volume of 135 μL. The assay plates were incubated at room temperature with shaking for 1 hour, long enough for binding reactions to reach equilibrium, and the affinity beads were washed extensively with wash buffer (1× PBS, 0.05% Tween 20) to remove unbound protein. The beads were then resuspended in elution buffer (1× PBS, 0.05% Tween 20, 2 μM non-biotinylated affinity ligand) and incubated at room temperature with shaking for 30 min. The kinase concentration in the eluates was measured by quantitative PCR. Each kinase was tested individually against each compound. Kds were determined using eleven serial threefold dilutions. A selectivity score, which is a quantitative measure of selectivity of a compound against a panel of enzymes, may be calculated for a compound by dividing the number of enzymes for which a compound meets a set criteria, (for example, a binding constant of 100 nM or less), by the total number of enzymes tested.

[3] = target: T1, TYK2 (Homo sapiens, UniProt P29597); assay: Competition binding assay, TYK2
T1 construct: made in house
T1 sequence (P29597 whole entry): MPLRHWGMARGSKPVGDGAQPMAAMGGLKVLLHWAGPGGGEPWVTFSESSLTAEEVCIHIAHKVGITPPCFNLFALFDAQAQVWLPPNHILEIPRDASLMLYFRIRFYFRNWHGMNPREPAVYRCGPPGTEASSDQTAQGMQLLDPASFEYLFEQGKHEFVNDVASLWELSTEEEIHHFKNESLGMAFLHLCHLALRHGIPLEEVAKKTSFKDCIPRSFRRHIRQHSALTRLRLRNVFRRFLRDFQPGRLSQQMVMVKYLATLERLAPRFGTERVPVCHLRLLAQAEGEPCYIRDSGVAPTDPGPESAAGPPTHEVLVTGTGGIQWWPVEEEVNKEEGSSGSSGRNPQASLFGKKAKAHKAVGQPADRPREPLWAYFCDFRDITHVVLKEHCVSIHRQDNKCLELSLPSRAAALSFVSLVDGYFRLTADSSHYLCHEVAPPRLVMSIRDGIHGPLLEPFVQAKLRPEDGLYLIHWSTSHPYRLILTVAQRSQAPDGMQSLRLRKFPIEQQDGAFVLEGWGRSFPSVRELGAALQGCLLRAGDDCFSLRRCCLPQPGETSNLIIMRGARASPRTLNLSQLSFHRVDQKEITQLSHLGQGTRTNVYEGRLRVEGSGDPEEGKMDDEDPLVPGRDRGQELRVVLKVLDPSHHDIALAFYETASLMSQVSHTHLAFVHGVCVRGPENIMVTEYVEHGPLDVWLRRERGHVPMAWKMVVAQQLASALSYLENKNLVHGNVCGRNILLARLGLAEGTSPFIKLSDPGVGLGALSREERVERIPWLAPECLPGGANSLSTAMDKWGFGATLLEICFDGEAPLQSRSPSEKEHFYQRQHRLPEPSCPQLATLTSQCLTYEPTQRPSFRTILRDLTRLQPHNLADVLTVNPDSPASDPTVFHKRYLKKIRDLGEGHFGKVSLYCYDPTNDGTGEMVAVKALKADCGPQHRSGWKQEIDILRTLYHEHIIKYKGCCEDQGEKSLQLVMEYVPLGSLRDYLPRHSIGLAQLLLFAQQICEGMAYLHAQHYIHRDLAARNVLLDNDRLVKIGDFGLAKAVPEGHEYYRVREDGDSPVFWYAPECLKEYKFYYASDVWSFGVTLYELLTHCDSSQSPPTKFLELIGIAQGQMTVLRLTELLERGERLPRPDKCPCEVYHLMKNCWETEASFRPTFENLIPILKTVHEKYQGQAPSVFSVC
Excerpt: (§2) Competition Binding Assay to Determine Binding Constants (Kd) of the Compounds Against JAK Kinases
as §1

[4] = target: T2, JAK2 (Homo sapiens, UniProt O60674); assay: Competition binding assay, JAK2
T2 construct: made in house
T2 sequence (O60674 whole entry): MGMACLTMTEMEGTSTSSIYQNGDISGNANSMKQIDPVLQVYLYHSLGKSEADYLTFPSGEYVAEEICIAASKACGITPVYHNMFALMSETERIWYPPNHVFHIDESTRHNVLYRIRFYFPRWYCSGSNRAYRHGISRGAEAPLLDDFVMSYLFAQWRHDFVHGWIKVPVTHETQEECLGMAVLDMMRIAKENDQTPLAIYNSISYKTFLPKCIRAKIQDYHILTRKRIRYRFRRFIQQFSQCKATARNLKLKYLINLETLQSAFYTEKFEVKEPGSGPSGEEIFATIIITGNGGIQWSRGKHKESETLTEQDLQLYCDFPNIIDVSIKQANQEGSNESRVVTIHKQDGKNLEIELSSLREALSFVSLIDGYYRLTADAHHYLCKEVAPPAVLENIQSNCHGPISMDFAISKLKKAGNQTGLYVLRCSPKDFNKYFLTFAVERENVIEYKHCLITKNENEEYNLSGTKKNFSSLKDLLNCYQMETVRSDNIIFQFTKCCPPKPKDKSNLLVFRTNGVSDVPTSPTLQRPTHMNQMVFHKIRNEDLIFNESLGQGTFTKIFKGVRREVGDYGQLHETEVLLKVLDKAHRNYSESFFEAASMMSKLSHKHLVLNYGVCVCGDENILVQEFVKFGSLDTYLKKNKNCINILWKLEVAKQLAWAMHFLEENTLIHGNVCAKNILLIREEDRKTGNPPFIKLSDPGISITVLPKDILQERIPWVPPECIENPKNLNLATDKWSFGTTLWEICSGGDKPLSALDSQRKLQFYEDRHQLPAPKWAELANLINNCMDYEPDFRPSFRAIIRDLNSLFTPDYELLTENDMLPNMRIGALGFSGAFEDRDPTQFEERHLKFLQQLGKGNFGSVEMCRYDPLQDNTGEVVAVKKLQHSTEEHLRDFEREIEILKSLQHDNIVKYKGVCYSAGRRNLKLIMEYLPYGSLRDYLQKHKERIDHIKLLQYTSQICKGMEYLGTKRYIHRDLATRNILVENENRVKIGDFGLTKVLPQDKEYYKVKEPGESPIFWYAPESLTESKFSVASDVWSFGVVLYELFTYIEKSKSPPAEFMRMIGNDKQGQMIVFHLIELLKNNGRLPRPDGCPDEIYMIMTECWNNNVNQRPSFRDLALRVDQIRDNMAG
Excerpt: as §2, §1

[5] = target: T3, JAK3 (Homo sapiens, UniProt P52333); assay: Competition binding assay, JAK3
T3 construct: made in house
T3 sequence (P52333 1-1124): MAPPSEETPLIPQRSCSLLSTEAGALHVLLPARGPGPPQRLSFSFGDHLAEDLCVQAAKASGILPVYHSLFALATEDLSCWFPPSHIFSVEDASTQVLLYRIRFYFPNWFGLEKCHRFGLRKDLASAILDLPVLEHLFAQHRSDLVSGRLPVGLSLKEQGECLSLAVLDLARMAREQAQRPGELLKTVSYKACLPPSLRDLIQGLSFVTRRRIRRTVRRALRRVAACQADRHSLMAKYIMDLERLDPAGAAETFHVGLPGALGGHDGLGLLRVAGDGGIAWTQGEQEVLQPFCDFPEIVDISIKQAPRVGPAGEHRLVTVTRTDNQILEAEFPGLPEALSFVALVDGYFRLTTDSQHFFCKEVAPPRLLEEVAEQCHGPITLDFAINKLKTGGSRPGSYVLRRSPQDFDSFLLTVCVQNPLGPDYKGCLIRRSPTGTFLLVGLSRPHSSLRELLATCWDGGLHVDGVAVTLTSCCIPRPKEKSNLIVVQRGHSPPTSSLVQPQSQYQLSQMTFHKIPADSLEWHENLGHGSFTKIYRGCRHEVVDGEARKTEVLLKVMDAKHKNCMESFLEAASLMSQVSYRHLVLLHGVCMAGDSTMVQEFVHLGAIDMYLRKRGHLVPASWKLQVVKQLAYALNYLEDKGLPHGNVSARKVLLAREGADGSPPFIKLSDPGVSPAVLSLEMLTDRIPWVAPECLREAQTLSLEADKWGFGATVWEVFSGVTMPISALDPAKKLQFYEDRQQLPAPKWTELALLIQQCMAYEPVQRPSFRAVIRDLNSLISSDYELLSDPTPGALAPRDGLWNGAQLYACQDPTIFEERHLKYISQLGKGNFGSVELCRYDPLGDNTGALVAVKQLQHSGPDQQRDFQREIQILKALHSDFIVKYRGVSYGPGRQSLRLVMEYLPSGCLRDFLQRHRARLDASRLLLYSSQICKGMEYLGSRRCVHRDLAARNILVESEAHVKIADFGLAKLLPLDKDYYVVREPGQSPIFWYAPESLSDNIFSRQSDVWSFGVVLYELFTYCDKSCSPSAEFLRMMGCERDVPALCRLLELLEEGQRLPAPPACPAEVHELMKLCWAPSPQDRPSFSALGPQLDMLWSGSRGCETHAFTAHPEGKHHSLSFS
Excerpt: as §2, §1

SMILES | pIC50 [1] | S-Score: S(10) at 10 μM [2] | pKd [3] | pKd [4] | pKd [5]
Cc1cc2c(Nc3cc[nH]n3)nc(C(F)(F)c3ccc(F)cc3)nc2s1 [Example 15, 2-(difluoro(4-fluorophenyl)methyl)-6-methyl-N-(1H-pyrazol-3-yl)thieno[2,3-d]pyrimidin-4-amine] | 6.30 to 7.00 | A (A ≦ 0.3) | < 7.00 | 8.00 to 9.00 | 7.00 to 8.00
Cc1cc(Nc2nc(C(=O)c3ccc(F)cc3)nc3cc(C)sc23)n[nH]1 [Example 20, (4-fluorophenyl)(6-methyl-4-(5-methyl-1H-pyrazol-3-ylamino)thieno[3,2-d]pyrimidin-2-yl)methanone] | ≥ 7.00 | B (0.3 < B ≦ 0.4) | 7.00 to 8.00 | ≥ 9.00 | ≥ 8.00
Cc1csc2nc(C(O)c3ccc(F)cc3)nc(Nc3cc[nH]n3)c12 (racemic) [Example 13, (R,S)-(4-(1H-pyrazol-3-ylamino)-5-methylthieno[2,3-d]pyrimidin-2-yl)(4-fluorophenyl)methanol] | < 6.30 | A (A ≦ 0.3) | < 7.00 | < 8.00 | < 7.00
Cc1cc2c(Nc3cc[nH]n3)nc(C(O)c3ccc(F)cc3)nc2s1 (racemic) [Example 17, (R,S)-(4-(1H-pyrazol-3-ylamino)-6-methylthieno[2,3-d]pyrimidin-2-yl)(4-fluorophenyl)methanol] | 6.30 to 7.00 | A (A ≦ 0.3) | < 7.00 | ≥ 9.00 | 7.00 to 8.00
Cc1cc(Nc2nc(C(O)c3ccc(F)cc3)nc3c(C)csc23)n[nH]1 (stereo not drawn) [Example 23, (4-fluorophenyl)(7-methyl-4-(5-methyl-1H-pyrazol-3-ylamino)thieno[3,2-d]pyrimidin-2-yl)methanol] | 6.30 to 7.00 | A (A ≦ 0.3) | ≥ 8.00 | ≥ 9.00 | 7.00 to 8.00
Cc1cc(Nc2nc(C(F)(F)c3ccc(F)cc3)nc3sc(C)cc23)n[nH]1 [Example 14, 2-(difluoro(4-fluorophenyl)methyl)-6-methyl-N-(5-methyl-1H-pyrazol-3-yl)thieno[2,3-d]pyrimidin-4-amine] | ≥ 7.00 | A (A ≦ 0.3) | ≥ 8.00 | ≥ 9.00 | 7.00 to 8.00
Cc1cc(Nc2nc(C(O)c3ccc(F)cc3)nc3sccc23)n[nH]1 (racemic) [Example 4, (R,S)-(4-fluorophenyl)(4-(5-methyl-1H-pyrazol-3-ylamino)thieno[2,3-d]pyrimidin-2-yl)methanol] | ≥ 7.00 | B (0.3 < B ≦ 0.4) | ≥ 8.00 | ≥ 9.00 | ≥ 8.00
Cc1csc2c(Nc3cc[nH]n3)nc(C(O)c3ccc(F)cc3)nc12 (stereo not drawn) [Example 25, (4-(1H-Pyrazol-3-ylamino)-7-methylthieno[3,2-d]pyrimidin-2-yl)(4-fluorophenyl)methanol] | 6.30 to 7.00 | – | ≥ 8.00 | 8.00 to 9.00 | 7.00 to 8.00
Cc1cc(Nc2nc(C(F)(F)c3ccc(F)cc3)nc3sccc23)n[nH]1 [Example 1, 2-(difluoro(4-fluorophenyl)methyl)-N-(5-methyl-1H-pyrazol-3-yl)thieno[2,3-d]pyrimidin-4-amine] | ≥ 7.00 | B (0.3 < B ≦ 0.4) | ≥ 8.00 | ≥ 9.00 | ≥ 8.00
Cc1cc(Nc2nc(C(=O)c3ccc(F)cc3)nc3ccsc23)n[nH]1 [Example 5, (4-fluorophenyl)(4-(5-methyl-1H-pyrazol-3-ylamino)thieno[3,2-d]pyrimidin-2-yl)methanone] | ≥ 7.00 | A (A ≦ 0.3) | 7.00 to 8.00 | ≥ 9.00 | ≥ 8.00
Fc1ccc(C(F)(F)c2nc(Nc3cc[nH]n3)c3sccc3n2)cc1 [Example 8, 2-(difluoro(4-fluorophenyl)methyl)-N-(1H-pyrazol-3-yl)thieno[3,2-d]pyrimidin-4-amine] | ≥ 7.00 | A (A ≦ 0.3) | ≥ 8.00 | ≥ 9.00 | 7.00 to 8.00
Cc1cc(Nc2nc(C(=O)c3ccc(F)cc3)nc3sccc23)n[nH]1 [Example 3, (4-fluorophenyl)(4-(5-methyl-1H-pyrazol-3-ylamino)thieno[2,3-d]pyrimidin-2-yl)methanone] | ≥ 7.00 | B (0.3 < B ≦ 0.4) | 7.00 to 8.00 | ≥ 9.00 | ≥ 8.00
Cc1csc2nc(C(=O)c3ccc(F)cc3)nc(Nc3cc[nH]n3)c12 [Example 12, (4-(1H-pyrazol-3-ylamino)-5-methylthieno[2,3-d]pyrimidin-2-yl)(4-fluorophenyl)methanone] | < 6.30 | A (A ≦ 0.3) | < 7.00 | < 8.00 | < 7.00
Cc1cc2c(Nc3cn(C)cn3)nc(C(O)c3ccc(F)cc3)nc2s1 (stereo not drawn) [Example 34, (4-fluorophenyl)(6-methyl-4-(1-methyl-1H-imidazol-4-ylamino)thieno[2,3-d]pyrimidin-2-yl)methanol] | 6.30 to 7.00 | A (A ≦ 0.3) | – | ≥ 9.00 | < 7.00
Cc1cc(Nc2nc(C(C)(O)c3ccc(F)cc3)nc3ccsc23)n[nH]1 (racemic) [Example 18, (R,S)-1-(4-fluorophenyl)-1-(4-(5-methyl-1H-pyrazol-3-ylamino)thieno[3,2-d]pyrimidin-2-yl)ethanol] | ≥ 7.00 | – | ≥ 8.00 | ≥ 9.00 | ≥ 8.00

From patent US20130317045A1, “THIENOPYRIDINE AND THIENOPYRIMIDINE COMPOUNDS AND METHODS OF USE THEREOF” (AMBIT BIOSCIENCES CORPORATION, priority 2010, published 2013)
